Data from ChEMBL document CHEMBL1201862, “PubChem BioAssay data set” (2004).
Where “and” joins values, the source holds several entries; their conditions need not be identical. Identical values can stand only once.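 How tested: cells in 96-well plates exposed to compound for 48 hours at five concentrations. The concentration for 50% growth inhibition is given as GI50.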 Calls of active or inactive are those of the source. No stated cut-off is given here; in the data, active = GI50 up to about 1.1 µM and inactive = higher.

What was measured:
Assay in all cases: NCI-60 cell line screen, 48 h
[1] = system: 786-0
[2] = system: A498
[3] = system: A549
[4] = system: ACHN
[5] = system: BT-549
[6] = system: CAKI-1
[7] = system: CCRF-CEM
[8] = system: COLO 205
[9] = system: DU-145
[10] = system: EKVX
[11] = system: HCC 2998
[12] = system: HCT-116
[13] = system: HCT-15
[14] = system: HL-60
[15] = system: HOP-62
[16] = system: HOP-92
[17] = system: HT-29
[18] = system: Hs-578T
[19] = system: IGROV-1
[20] = system: K562
[21] = system: KM12
[22] = system: LOX IMVI
[23] = system: M14
[24] = system: MCF7
[25] = system: MDA-MB-231
[26] = system: MDA-MB-435
[27] = system: MDA-N
[28] = system: MOLT-4
[29] = system: Malme-3M
[30] = system: NCI-H226
[31] = system: NCI-H23
[32] = system: NCI-H460
[33] = system: NCI-H522
[34] = system: NCI/ADR-RES
[35] = system: OVCAR-3
[36] = system: OVCAR-4
[37] = system: OVCAR-5
[38] = system: OVCAR-8
[39] = system: PC-3
[40] = system: RPMI-8226
[41] = system: RXF 393
[42] = system: SF-268
[43] = system: SF-295
[44] = system: SF-539
[45] = system: SK-MEL-28
[46] = system: SK-MEL-2
[47] = system: SK-MEL-5
[48] = system: SK-OV-3
[49] = system: SN12C
[50] = system: SNB-19
[51] = system: SNB-75
[52] = system: SR
[53] = system: SW-620
[54] = system: T47D
[55] = system: TK-10
[56] = system: U-251
[57] = system: UACC-257
[58] = system: UACC-62
[59] = system: UO-31

Measured: GI50

CC1=C(C)C(=O)C(C2=C(C3=CC(=O)C(C)=C(C)C3=O)C(=O)c3ccccc3C2=O)=CC1=O
2.12 µM: [13]
active: [7] 0.619 µM | [8] 0.863 µM | [14] 0.255 µM | [29] 1.12 µM
inactive: [1] 1.88 µM | [2] 8.04 µM | [3] 5.21 µM | [4] 2.31 µM | [5] 2.57 µM | [6] 2.25 µM | [9] 2.95 µM | [10] 2.12 µM | [11] 4.66 µM | [12] 2.14 µM | [15] 14.7 µM | [16] 2.55 µM | [17] 2.2 µM | [18] 5.93 µM | [19] 2.48 µM | [20] 2.77 µM | [21] 3.33 µM | [22] 2.41 µM | [23] 1.82 µM | [24] 1.71 µM | [25] 2.37 µM | [26] 1.5 µM | [27] 1.91 µM | [28] 1.41 µM | [30] 6.14 µM | [31] 2.79 µM | [32] 14.2 µM | [33] 1.88 µM | [34] 10.4 µM | [35] 2.68 µM | [36] 1.7 µM | [37] 13 µM | [38] 2.38 µM | [39] 2.61 µM | [40] 1.3 µM | [41] 1.71 µM | [42] 3.26 µM | [43] 12.1 µM | [44] 2.36 µM | [45] 2.3 µM | [46] 2.32 µM | [47] 4.53 µM | [48] 16.5 µM | [49] 1.85 µM | [50] 11.2 µM | [51] 9.79 µM | [52] 1.47 µM | [53] 1.82 µM | [54] 2.96 µM | [55] 6.35 µM | [56] 3.62 µM | [57] 1.99 µM | [58] 2.51 µM | [59] 1.93 µM

NC(Cc1ccc(N(CCCl)CCCl)cc1)C(=O)NC(CCC(=O)O)C(=O)O (stereo not drawn)
> 100 µM: [13]
inactive: [1] > 100 µM | [2] > 100 µM | [3] > 100 µM | [4] > 100 µM | [5] > 100 µM | [6] > 100 µM | [7] > 100 µM | [8] > 100 µM | [9] > 100 µM | [10] > 100 µM | [11] > 100 µM | [12] > 100 µM | [14] > 100 µM | [15] > 100 µM | [16] > 100 µM | [17] > 100 µM | [18] > 100 µM | [19] > 100 µM | [20] > 100 µM | [21] > 100 µM | [22] > 100 µM | [23] > 100 µM | [24] > 100 µM | [25] > 100 µM | [26] > 100 µM | [27] > 100 µM | [28] > 100 µM | [29] > 100 µM | [30] > 100 µM | [31] > 100 µM | [32] > 100 µM | [33] > 100 µM | [34] > 100 µM | [35] > 100 µM | [36] > 100 µM | [37] > 100 µM | [38] > 100 µM | [39] > 100 µM | [40] > 100 µM | [41] > 100 µM | [42] > 100 µM | [43] > 100 µM | [44] > 100 µM | [45] > 100 µM | [46] > 100 µM | [47] > 100 µM | [48] > 100 µM | [49] > 100 µM | [50] > 100 µM | [51] > 100 µM | [52] 38 µM and 60.4 µM | [53] > 100 µM | [54] > 100 µM | [55] > 100 µM | [56] > 100 µM | [57] > 100 µM | [58] > 100 µM | [59] > 100 µM
